Reference: PMC10378394 (Current Issues in Molecular Biology, 2023)

What was measured:
CK1δ(h) = CK1δ(h) (Homo sapiens, UniProt P48730); experiment: Eurofins kinase assay
PKCε(h) = PKCε(h) (Homo sapiens, UniProt Q02156); experiment: Eurofins kinase assay
CK2(h) = CK2(h) (Homo sapiens, UniProt P68400); experiment: Eurofins kinase assay
Fyn(h) = Fyn(h) (Homo sapiens, UniProt P06241); experiment: Eurofins kinase assay
Rsk1(h) = Rsk1(h) (Homo sapiens, UniProt Q15418); experiment: Eurofins kinase assay
Aurora-A(h) = Aurora-A(h) (Homo sapiens, UniProt O14965); experiment: Eurofins kinase assay
PKCι(h) = PKCι(h) (Homo sapiens, UniProt P41743); experiment: Eurofins kinase assay
HCT116 (KRAS G13D) = experiment: Cell proliferation assay (CellTiter-Glo); conditions: Homo sapiens, HCT-116, 72 h
Description: (§3) To assess cell viability, the CellTiter-Glo Luminescent Cell Viability Assay Reagent (Promega, Fitchburg, WI, USA) was added to each well. The assay measured ATP levels as an indicator of cell viability. All data points were normalized to the control samples treated with dimethyl sulfoxide when determining IC50 values. Statistical calculations and data analysis, including IC50 determination, were performed using GraphPad Prism software.

HT29 (BRAF V600E) = experiment: Cell proliferation assay (CellTiter-Glo); conditions: Homo sapiens, HT-29, 72 h
Description: as §3

PKA(h) = PKA(h) (Homo sapiens, UniProt P17612); experiment: Eurofins kinase assay
ATR/ATRIP(h) = ATR/ATRIP(h) (Homo sapiens, UniProt Q13535); experiment: Eurofins kinase assay
CSF1R [1] = target: CSF1R (Homo sapiens, UniProt P07333); experiment: Eurofins kinase assay
Chain of CSF1R (Homo sapiens, UniProt P07333) (P07333 20-972): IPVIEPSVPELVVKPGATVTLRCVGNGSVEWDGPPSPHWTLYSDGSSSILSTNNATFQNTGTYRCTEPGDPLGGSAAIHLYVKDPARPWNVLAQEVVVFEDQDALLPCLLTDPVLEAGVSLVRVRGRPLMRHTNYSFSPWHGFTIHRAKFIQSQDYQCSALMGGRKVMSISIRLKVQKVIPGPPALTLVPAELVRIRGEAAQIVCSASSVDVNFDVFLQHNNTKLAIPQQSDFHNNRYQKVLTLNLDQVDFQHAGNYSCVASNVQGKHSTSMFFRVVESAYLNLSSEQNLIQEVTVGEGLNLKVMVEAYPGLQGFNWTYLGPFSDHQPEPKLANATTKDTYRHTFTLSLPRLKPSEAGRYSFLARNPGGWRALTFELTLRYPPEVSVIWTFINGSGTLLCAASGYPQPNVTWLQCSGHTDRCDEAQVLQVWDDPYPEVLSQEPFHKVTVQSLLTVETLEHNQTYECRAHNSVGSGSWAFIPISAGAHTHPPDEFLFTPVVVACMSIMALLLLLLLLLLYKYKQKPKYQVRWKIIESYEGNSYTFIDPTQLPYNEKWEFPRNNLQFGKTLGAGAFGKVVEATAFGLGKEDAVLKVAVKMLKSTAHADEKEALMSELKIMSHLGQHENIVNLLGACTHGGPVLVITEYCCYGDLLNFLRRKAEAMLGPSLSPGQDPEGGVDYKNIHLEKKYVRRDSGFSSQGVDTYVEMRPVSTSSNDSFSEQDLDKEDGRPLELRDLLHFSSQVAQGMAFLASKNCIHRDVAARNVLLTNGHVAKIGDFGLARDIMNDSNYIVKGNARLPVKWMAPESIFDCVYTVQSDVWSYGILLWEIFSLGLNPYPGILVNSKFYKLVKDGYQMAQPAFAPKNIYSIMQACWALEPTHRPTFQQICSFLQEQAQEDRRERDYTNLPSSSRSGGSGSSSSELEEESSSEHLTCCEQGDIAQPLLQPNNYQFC

FGFR3(h) = FGFR3(h) (Homo sapiens, UniProt P22607); experiment: Eurofins kinase assay
IGF-1R(h) = IGF-1R(h) (Homo sapiens, UniProt P08069); experiment: Eurofins kinase assay
PDGFRβ(h) = PDGFRβ(h) (Homo sapiens, UniProt P09619); experiment: Eurofins kinase assay
Chain of PDGFRβ(h) (P09619 33-1106): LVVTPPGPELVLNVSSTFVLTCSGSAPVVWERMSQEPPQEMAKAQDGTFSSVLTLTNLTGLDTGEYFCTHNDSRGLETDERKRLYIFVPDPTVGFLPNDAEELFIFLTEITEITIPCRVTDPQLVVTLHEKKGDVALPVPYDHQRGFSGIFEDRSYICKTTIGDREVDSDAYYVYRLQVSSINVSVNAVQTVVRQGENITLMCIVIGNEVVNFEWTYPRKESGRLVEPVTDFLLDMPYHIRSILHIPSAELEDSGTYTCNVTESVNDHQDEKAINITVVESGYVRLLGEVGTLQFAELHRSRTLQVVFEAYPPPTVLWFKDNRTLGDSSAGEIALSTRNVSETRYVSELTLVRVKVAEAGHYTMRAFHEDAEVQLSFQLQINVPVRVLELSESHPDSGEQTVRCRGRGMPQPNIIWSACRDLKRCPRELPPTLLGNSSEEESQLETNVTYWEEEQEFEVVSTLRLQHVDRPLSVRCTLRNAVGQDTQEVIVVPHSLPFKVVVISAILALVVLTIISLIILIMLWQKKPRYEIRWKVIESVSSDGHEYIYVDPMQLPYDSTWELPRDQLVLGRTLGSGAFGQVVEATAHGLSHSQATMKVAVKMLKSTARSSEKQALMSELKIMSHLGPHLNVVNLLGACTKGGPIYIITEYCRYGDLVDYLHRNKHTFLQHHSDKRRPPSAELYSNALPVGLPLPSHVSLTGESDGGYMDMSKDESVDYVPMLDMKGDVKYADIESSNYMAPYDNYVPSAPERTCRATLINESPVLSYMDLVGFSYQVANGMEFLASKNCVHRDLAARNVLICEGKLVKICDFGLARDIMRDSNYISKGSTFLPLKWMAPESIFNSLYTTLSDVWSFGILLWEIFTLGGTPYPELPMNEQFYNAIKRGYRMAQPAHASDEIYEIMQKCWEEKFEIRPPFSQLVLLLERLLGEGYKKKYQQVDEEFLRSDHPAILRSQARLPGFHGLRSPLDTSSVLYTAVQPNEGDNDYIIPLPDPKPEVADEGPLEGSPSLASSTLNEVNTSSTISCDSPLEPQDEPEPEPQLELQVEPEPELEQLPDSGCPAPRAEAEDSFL

NEK2(h) = NEK2(h) (Homo sapiens, UniProt P51955); experiment: Eurofins kinase assay
Chain of NEK2(h) (P51955 whole entry): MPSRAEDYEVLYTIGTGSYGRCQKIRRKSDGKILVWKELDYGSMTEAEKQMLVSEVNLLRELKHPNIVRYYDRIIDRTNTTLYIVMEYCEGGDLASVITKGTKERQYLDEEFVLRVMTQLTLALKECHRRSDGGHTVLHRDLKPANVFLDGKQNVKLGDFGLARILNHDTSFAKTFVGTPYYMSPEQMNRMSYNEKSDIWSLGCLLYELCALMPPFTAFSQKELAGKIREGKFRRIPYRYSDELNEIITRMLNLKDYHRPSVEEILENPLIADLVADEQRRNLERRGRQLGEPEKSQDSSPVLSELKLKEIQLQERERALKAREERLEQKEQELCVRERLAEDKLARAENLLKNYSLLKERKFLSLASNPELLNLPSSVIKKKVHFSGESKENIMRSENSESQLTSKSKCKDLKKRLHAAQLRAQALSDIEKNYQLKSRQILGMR

PRAK(h) = PRAK(h) (Homo sapiens, UniProt Q8IW41); experiment: Eurofins kinase assay
CHK1(h) = CHK1(h) (Homo sapiens, UniProt O14757); experiment: Eurofins kinase assay
PKCη(h) = PKCη(h) (Homo sapiens, UniProt P24723); experiment: Eurofins kinase assay
Chain of PKCη(h) (P24723 whole entry): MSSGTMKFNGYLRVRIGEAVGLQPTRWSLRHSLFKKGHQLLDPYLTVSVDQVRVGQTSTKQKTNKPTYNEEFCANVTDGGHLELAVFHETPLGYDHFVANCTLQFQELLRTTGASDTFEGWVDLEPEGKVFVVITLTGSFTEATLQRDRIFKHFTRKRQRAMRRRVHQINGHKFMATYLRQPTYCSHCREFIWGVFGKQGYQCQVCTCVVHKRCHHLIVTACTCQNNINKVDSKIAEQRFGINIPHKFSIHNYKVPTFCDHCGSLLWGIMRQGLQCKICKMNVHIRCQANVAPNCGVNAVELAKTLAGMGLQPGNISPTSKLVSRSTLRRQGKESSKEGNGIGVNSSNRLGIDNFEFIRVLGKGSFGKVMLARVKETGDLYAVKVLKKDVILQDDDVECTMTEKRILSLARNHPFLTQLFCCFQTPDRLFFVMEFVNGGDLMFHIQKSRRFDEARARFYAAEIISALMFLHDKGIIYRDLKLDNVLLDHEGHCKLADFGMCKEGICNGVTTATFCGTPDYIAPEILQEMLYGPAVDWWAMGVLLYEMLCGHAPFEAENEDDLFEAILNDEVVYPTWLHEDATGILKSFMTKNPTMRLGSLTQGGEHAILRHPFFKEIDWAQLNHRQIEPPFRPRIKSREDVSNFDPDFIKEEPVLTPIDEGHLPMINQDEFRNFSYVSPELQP

MEK1(h) = MEK1(h) (Homo sapiens, UniProt Q02750); experiment: Eurofins kinase assay
cSRC(h) = cSRC(h) (Homo sapiens, UniProt P12931); experiment: Eurofins kinase assay
CSF1R [2] = target: T1, CSF1R (Mus musculus, UniProt P09581); experiment: Western blot in BMDMs, ligand-dependent phosphorylation; type: cell-based; conditions: 2 h treatment, CSF1 100 ng/mL 15 min
T1 construct: endogenous in cells; host or cells: mouse bone-marrow-derived macrophages (BMDMs)
Description: (§1) HCT116, LS513, SW620, HUVECs, and HT29 cell lines were purchased from the Korean Cell Line Bank (Seoul, Korea). All cell lines were maintained in RPMI or DMEM (Gibco Inc., Billings, MT, USA) supplemented with 10% FBS (Gibco, USA) and penicillin–streptomycin in an incubator at 37 °C and 5% CO2. Bone marrow cells were isolated from the femur and tibia of mice using a single-pass bone marrow aspiration. Cells were cultured in RPMI medium supplemented with 10% FBS and 100 ng/mL CSF1 (Peprotech, Rocky Hill, NJ, USA) for 7 days to differentiate into bone-marrow-derived macrophages (BMDMs).
(§2) In 6-well plates, LS513 cells were seeded and allowed to adhere and proliferate for 24 h. […] After treatment, the cells were harvested using RIPA lysis buffer to extract cellular proteins. The cell lysates were subjected to Western blot analysis. […] The cell lysates were analyzed by Western blot using specific antibodies, such as p-CSF1R (Cell Signaling, #14591S), CSF1R (Cell Signaling, #67455S), p-TIE2 (Cell Signaling, #4221S), and TIE2 (Santa Cruz Biotechnology, Dallas, TX, USA, #sc-293414), to detect and analyze the respective proteins.

TIE2 [3] = target: T2, TIE2 (Mus musculus, UniProt Q02858); experiment: as above; type: cell-based; conditions: 2 h treatment, angiopoietin 2 100 ng/mL 15 min
T2 construct: endogenous in cells; host or cells: mouse bone-marrow-derived macrophages (BMDMs)
Description: as §1, §2

TIE2 [4] = target: TIE2 (Homo sapiens, UniProt Q02763); experiment: Eurofins kinase assay
Chain of TIE2 (Homo sapiens, UniProt Q02763) (Q02763 23-1124): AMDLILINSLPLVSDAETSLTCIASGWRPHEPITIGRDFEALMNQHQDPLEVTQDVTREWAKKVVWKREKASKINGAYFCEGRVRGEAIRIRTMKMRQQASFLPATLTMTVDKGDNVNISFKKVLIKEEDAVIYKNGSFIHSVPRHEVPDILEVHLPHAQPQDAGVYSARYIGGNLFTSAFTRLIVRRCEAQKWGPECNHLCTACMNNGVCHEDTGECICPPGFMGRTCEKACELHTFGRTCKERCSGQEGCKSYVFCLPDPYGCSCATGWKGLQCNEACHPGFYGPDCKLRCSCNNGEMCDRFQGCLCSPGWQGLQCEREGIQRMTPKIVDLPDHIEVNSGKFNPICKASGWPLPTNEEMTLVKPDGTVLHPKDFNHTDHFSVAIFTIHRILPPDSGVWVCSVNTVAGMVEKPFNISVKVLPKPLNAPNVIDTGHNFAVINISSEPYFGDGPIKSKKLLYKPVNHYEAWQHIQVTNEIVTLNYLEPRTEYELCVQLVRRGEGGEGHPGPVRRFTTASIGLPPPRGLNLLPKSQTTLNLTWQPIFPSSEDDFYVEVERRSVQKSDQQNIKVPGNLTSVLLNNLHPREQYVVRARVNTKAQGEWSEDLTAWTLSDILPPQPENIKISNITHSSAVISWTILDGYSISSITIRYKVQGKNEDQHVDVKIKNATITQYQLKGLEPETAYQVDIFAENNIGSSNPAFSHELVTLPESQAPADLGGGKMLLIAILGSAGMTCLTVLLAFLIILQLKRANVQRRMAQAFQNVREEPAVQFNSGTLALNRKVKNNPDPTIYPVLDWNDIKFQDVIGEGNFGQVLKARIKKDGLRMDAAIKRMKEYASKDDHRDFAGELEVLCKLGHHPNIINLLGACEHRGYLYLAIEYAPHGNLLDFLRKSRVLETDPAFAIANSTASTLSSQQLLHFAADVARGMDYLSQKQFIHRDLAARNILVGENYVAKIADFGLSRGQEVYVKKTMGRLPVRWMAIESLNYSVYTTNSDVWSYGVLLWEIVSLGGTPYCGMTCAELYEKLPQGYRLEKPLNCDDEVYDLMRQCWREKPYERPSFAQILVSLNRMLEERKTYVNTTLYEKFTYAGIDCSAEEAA

PAR-1Bα(h) = PAR-1Bα(h) (Homo sapiens, UniProt Q7KZI7); experiment: Eurofins kinase assay

Chain of Fyn(h) (P06241 whole entry): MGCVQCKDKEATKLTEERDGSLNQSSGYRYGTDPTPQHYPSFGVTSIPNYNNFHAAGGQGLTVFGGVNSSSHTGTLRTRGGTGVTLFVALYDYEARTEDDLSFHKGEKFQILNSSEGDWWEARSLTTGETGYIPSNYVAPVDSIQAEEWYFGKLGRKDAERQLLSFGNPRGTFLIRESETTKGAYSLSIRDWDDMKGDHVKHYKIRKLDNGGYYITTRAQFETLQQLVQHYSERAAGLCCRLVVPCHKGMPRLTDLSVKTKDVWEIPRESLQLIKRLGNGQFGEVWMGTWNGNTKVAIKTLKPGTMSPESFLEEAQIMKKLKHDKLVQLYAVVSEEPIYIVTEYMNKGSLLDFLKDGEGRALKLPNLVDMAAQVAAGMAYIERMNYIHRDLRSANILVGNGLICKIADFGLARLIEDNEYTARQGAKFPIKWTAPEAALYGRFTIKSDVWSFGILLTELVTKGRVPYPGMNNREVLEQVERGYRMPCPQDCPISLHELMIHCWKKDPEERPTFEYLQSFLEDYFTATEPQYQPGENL

Which results are given for `O=C(Nc1cc(Nc2ncccc2-c2ncnc3[nH]cnc23)ccc1F)c1cc(C(F)(F)F)cc(C(F)(F)F)c1` [SJ-C1044, N-(5-(3-(9H-purin-6-yl)pyridin-2-ylamino)-2-fluorophenyl)-3,5-bis(trifluoromethyl)benzamide]?
inhibition at 10 µM (CK1δ(h)): 0%; inhibition at 10 µM (PKCε(h)): -5%; inhibition at 10 µM (CK2(h)): -11%; inhibition at 10 µM (Fyn(h)): 27%; inhibition at 10 µM (Rsk1(h)): 0%; inhibition at 10 µM (Aurora-A(h)): 3%; inhibition at 10 µM (PKCι(h)): 11%; GI50 (HCT116 (KRAS G13D)): 160 nM; GI50 (HT29 (BRAF V600E)): 247 nM; inhibition at 10 µM (PKA(h)): -2%; inhibition at 10 µM (ATR/ATRIP(h)): 8%; IC50 (CSF1R [1]): 235 nM; inhibition at 10 µM (CSF1R [1]): 70%; inhibition at 10 µM (FGFR3(h)): 48%; inhibition at 10 µM (IGF-1R(h)): -24%; inhibition at 10 µM (PDGFRβ(h)): 11%; inhibition at 10 µM (NEK2(h)): -4%; inhibition at 10 µM (PRAK(h)): -15%; inhibition at 10 µM (CHK1(h)): -2%; inhibition at 10 µM (PKCη(h)): 3%; inhibition at 10 µM (MEK1(h)): 1%; inhibition at 10 µM (cSRC(h)): 38%; ligand-dependent phosphorylation of CSF1R (CSF1R [2]): significant inhibitory effects; ligand-dependent phosphorylation of TIE2 (TIE2 [3]): significant inhibitory effects; IC50 (TIE2 [4]): 23 nM; inhibition at 10 µM (TIE2 [4]): 97%; inhibition at 10 µM (PAR-1Bα(h)): 3%
